Experimental data: US6767522B1, “Method for leaching sulfide-containing materials with microorganisms and use of sulphur-containing amino acids in leaching with microorganisms” (Hahn-Meitner-Institut Berlin GmbH, priority 1998, dated 2004)

System: Thiobacillus ferrooxidans
Test: Bacterial dissolution of pyrite layers with Thiobacillus ferrooxidans in the presence of cysteine
Details: for lag phase of bacterial pyrite dissolution: pH 1.6; for pyrite corrosion level (or dissolution rate): pH 1.6, S^o-FeS2 pyrite layer 100 nm, after 10-11 days
Procedure: Each time, 1 cm^3 of pyrite layers 100 nm in thickness (referred to as S^o-FeS2), prepared according to Example 1 using elemental sulfur as precursor, was added with 300 μl of aqueous solutions or suspensions of Thiobacillus ferrooxidans cells and cysteine at concentrations of from 8×10^−2 to 8×10^−5 M in an in situ pyrite culture chamber. The pH value of the solutions was adjusted to 1.6 using Tuovinen buffer (for 1 liter: KH2PO4=0.4 g, MgSO4.7H2O=0.4 g, (NH4)2SO4=0.4 g, […], with no iron(II) being added) [cf., Tuovinen and Kelly, Arch. Mikrobiol. 88, 285-298 (1973)].
FIG. 1 is a plot of the pyrite corrosion level (or dissolution rate) [%] as a function of time [days] for the various solutions.

N[C@@H](CS)C(=O)O [cysteine]
lag phase of bacterial pyrite dissolution (8×10^−4 M cysteine in solution): no longer occurs | pyrite corrosion level (or dissolution rate) (8×10^−4 M cysteine in solution): 100% | lag phase of bacterial pyrite dissolution (8×10^−5 M cysteine in solution): no longer occurs | pyrite corrosion level (or dissolution rate) (8×10^−5 M cysteine in solution): 100%
